Activity calls are given as the source filed them. No rule for the calls is given here.

The test system of the first assay is S. cerevisiae SKN7-toxicity growth rescue, plate reader. Description: Yeast SKN7 toxicity growth rescue counterscreen, Saccharomyces cerevisiae, plate reader, dose confirmatory (AID 624258).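 Also: growth read after three days of incubation at 30 °C.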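 As to growth rescue activity: 0% = median of neutral control wells.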
Details: not given
On the technique in general: A counterscreen serves to expose hits that act by an unwanted route or on another target.
Take `COc1ccc(-n2nc(C#N)c(Cl)cc2=O)cc1`: the AC40 was 5.22 µM.

`O=C1c2ccccc2NC(c2ccc(-c3cccc([N+](=O)[O-])c3)o2)N1O` (stereo not drawn): the AC40 was 4.74 µM.

On to `O=C1C(=C(I)I)c2ccccc2-c2ccccc21`, for which the AC40 is 2.07 µM.

For `COc1ccc2c(n1)Sc1nc3ccccc3nc1N2`, the AC40 is 0.649 µM.

Regarding `COc1ccc(CNc2ncnc3sccc23)cc1`, the AC40 was 14.6 µM.

Consider `O=C(C1CC2C=CC1C2)N1CCN(c2ccccc2)CC1` (stereo not drawn), for which the AC40 is 3.11 µM.

For `O=C(c1ccco1)N1CCN(C(=O)c2ccccc2OCc2ccc(Cl)cc2)CC1`, the AC40 was 19.1 µM.

In the case of `O=C(Nc1ccc(Cl)c(Cl)c1)C1CCCCC1`, the AC40 was 0.565 µM.

Regarding `CCOC(=O)c1ccc(N2C(=O)CC(N(C)CCc3ccc(OC)c(OC)c3)C2=O)cc1` (stereo not drawn), the AC40 was 4.82 µM.

Take `Cc1ccc([C@@H]2CC=C(C(=O)O)[C@H](c3ccc(Br)cc3)N2S(=O)(=O)c2ccccc2C)cc1`: the AC40 is 5.39 µM.

In the case of `Cc1ccccc1NC(=O)CSc1ccc(-c2ccccn2)nn1`, the AC40 was 7.17 µM.

Regarding `O=Cc1cc(N=Nc2ccccc2Cl)ccc1O`, the AC40 is 0.446 µM.

`Clc1cccc(N/N=C(\Cc2nc3ccccc3[nH]2)c2ccccc2)c1`: the AC40 is 2.61 µM.

In the case of `CCOc1ccc(/C=C2/SC(=O)NC2=S)cc1`, the AC40 is 1.24 µM.

Regarding `Cc1noc2ncnc(SCc3ccc(C(F)(F)F)cc3)c12`, the AC40 was 0.965 µM.

Take `CCOC(=O)c1c(-c2ccccc2)oc2ccc(O)cc12`: the AC40 is 10.4 µM.

Take `O=C(O)c1ccc(C(=O)c2cc([N+](=O)[O-])cc([N+](=O)[O-])c2)cc1`: the AC40 was 15.7 µM.

Turning to `CC1=CC(=O)C(C(C)C)=C/C1=N/OS(=O)(=O)c1ccccc1`, the AC40 is 0.11 µM.

For `COc1ccc(OC)c2c1C(=O)C(Cl)=C(Cl)C2=O`, the AC40 was 0.66 µM.

As for `CCc1ccc(NC(=O)CSc2ccc(-c3ccccn3)nn2)cc1`, the AC40 is 0.968 µM.

With `CCc1ccc([C@@H]2CC=C(C(=O)O)[C@H](c3ccc(Cl)cc3)N2S(=O)(=O)c2ccc(C)cc2)cc1`, the AC40 is 4.51 µM.

`Cc1cc2oc(=O)cc(-c3ccccc3)c2c(C)c1-c1ccc(CO)cc1`: the AC40 is 4.67 µM.

Turning to `O=C(COc1ccc(Cl)cc1)NCCSCc1cccc(Cl)c1`, the AC40 was 3.16 µM.

As for `C[C@]12CCC3C(CC[C@H]4C[C@@H](O)CC[C@]34C)C1CC[C@@H]2OC(=O)[C@H](N)CCCCN` (stereo partly drawn), the AC40 is 11 µM.

For the compound `COc1ccc(-c2sc3ccccc3c2C#Cc2cncn2C)cc1`, the AC40 was 1.24 µM.

In the case of `Cc1ccc(C(C[N+](=O)[O-])c2c(N)n(C)c(=O)n(C)c2=O)cc1` (stereo not drawn), the AC40 is 4.96 µM.

Tested on in a further assay: not listed separately
Described as above. Conditions: S. cerevisiae SKN7-toxicity growth rescue, plate reader; at 2.1 µM (top of the series).
Consider `O=S(=O)(Nc1ccccc1)c1ccc(Oc2ncc(C(F)(F)F)cc2Cl)cc1`, for which the growth rescue activity was -15.3% (inactive).

The same assay, now with this note: S. cerevisiae SKN7-toxicity growth rescue, plate reader; at 6.8 µM (top of the series).
Regarding `CC(C)(C)n1nc(Cc2cccc3ccccc23)c2c(N)ncnc21`, the growth rescue activity is -49.1% (inactive).

Still in this assay, the particulars now being: S. cerevisiae SKN7-toxicity growth rescue, plate reader; at 19.5 µM (top of the series).
For `CNc1cc(CSC)nc(SCc2ccc(Cl)cc2Cl)n1`, the growth rescue activity was -57.8% (inactive).

As for `O=C(C1COc2ccccc2O1)N1CCN(c2ccccc2Cl)CC1` (stereo not drawn), the growth rescue activity was -13% (inactive).

Take `COc1cccc2c1C(=O)c1c(O)c3c(c(O)c1C2=O)C[C@@](O)(C(C)=O)C[C@@H]3O[C@H]1C[C@H](N)[C@H](O)[C@H](C)O1`: the growth rescue activity was 23.7% (inactive).

Take `COCCn1c(=NC(=O)CSC(C)=O)sc2cc(F)ccc21`: the growth rescue activity is 56.5% (inactive).

Regarding `COc1cc2c(cc1OC)C(C)N(C(=O)C1COc3ccccc3O1)CC2` (stereo not drawn), the growth rescue activity is 14.6% (inactive).

On to `COc1ccc(O)c(C(=O)CC(=O)c2ccc(F)cc2)c1`, for which the growth rescue activity was -74.9% (inactive).

For `O=P(Nc1cccnc1)(Oc1ccccc1Cl)Oc1ccccc1Cl`, the growth rescue activity was -59% (inactive).

Regarding `N#Cc1cc2c(nc1SCc1ccccc1)CCCC2=O`, the growth rescue activity was -24.7% (inactive).

In the case of `CSC1SCC2C(=O)N(C)C(C(C)C)C(=O)OCC(NC(=O)c3cnc4ccccc4n3)C(=O)NC(C)C(=O)N(C)C1C(=O)N(C)C(C(C)C)C(=O)OCC(NC(=O)c1cnc3ccccc3n1)C(=O)NC(C)C(=O)N2C` (stereo not drawn), the growth rescue activity is 8.43% (inactive).

With `C=CCOCCN(C)C1=NS(=O)(=O)c2cc([N+](=O)[O-])ccc21`, the growth rescue activity was -14.3% (inactive).

Regarding `CN(C)c1ccc(C=c2c3cc(O)ccc3n3c2cc(-c2ccccc2)[n+]3C)cc1`, the growth rescue activity was -34.8% (inactive).

On to `COc1ccc2oc(=O)c(-c3csc(Nc4cccc(O)c4)n3)cc2c1`, for which the growth rescue activity was 12.4% (inactive).

`CCOC(=O)c1cnc(-n2nc(C)cc2C)nc1NC1CCCC1`: the growth rescue activity was -62% (inactive).

In the case of `CCc1ccc(OCc2n[nH]c(=S)n2Cc2ccccc2)cc1`, the growth rescue activity was -30.5% (inactive).

Turning to `O=C(O)CSc1cc(NS(=O)(=O)c2ccc(Br)cc2)c2ccccc2c1O`, the growth rescue activity is 30.5% (inactive).

Regarding `O=C(Nc1ccc(C2=NCCN2)cc1)c1ccc(C(=O)Nc2ccc(C3=NCCN3)cc2)c(Cl)c1`, the growth rescue activity is -69% (inactive).

For `O=S(=O)(Nc1cc(Sc2ncn[nH]2)c(O)c2ccccc12)c1ccccc1`, the growth rescue activity was -4.91% (inactive).

Consider `COc1cc(/C=N/O)cc(Br)c1OCc1cccc(Cl)c1`, for which the growth rescue activity is -82% (inactive).

For `O=S1(=O)CCN2C(=N1)Sc1c2ccc2c1CCCC2`, the growth rescue activity is 5.5% (inactive).

In the case of `S=c1[nH]nc(-c2ccco2)n1/N=C/c1ccc(Br)s1`, the growth rescue activity is 30.2% (inactive).

Regarding `C=CCOc1ccc(-c2n[nH]c(=S)o2)cc1`, the growth rescue activity is -47.1% (inactive).

As to `CCO/C=C1/C(=O)N(Cc2ccccc2)C(=O)c2ccccc21`, the growth rescue activity is 2.35% (inactive).

Turning to `CN(C)c1nc(-c2ccccn2)nnc1-c1ccccc1`, the growth rescue activity is -23.6% (inactive).

Consider `COc1ccc2c(c1)OC[C@H]1[C@H]2N2C(=O)c3cc(C)ccc3NC(=O)[C@@]2(C)[C@H]1c1ccccc1`, for which the growth rescue activity is 122% (inactive).

For `CCOC(=O)C1=NN(c2ccccc2)C(=O)/C1=C\c1ccc(N(C)C)cc1`, the growth rescue activity is -16.7% (inactive).

On to `O=C1Nc2c(Br)cccc2C1=O`, for which the growth rescue activity was -9.27% (inactive).

Take `COC(=O)C(=N/Nc1ccccc1C(=O)OC)/C(C)=N/O`: the growth rescue activity was -7.81% (inactive).

Regarding `CCC(C(=O)c1ccc2ncccc2c1)c1ccccc1` (stereo not drawn), the growth rescue activity was -32.2% (inactive).

For `CCN(CC)C(=O)CSc1ncnc2sc(-c3ccccc3)cc12`, the growth rescue activity was -25.1% (inactive).

With `CC1CN(C(=O)c2cc([N+](=O)[O-])cc([N+](=O)[O-])c2)CC(C)O1` (stereo not drawn), the growth rescue activity is -63% (inactive).

In the case of `Cc1onc(-c2ccccc2)c1C(=O)NC(=S)NNC(=O)c1ccc(O)cc1O`, the growth rescue activity was -33.4% (inactive).

Turning to `N#CC1C(=N)Cc2ccccc2-c2ccccc21` (stereo not drawn), the growth rescue activity is -20.3% (inactive).

Take `Cc1ccc(NS(=O)(=O)c2ccc(N3CCN(c4ccc(O)cc4)CC3)c([N+](=O)[O-])c2)c(C)c1`: the growth rescue activity is -52.6% (inactive).

`Cc1cc(Cl)ccc1C(=O)C1CCCN(C(=O)c2cncs2)C1` (stereo not drawn): the growth rescue activity was -54.3% (inactive).

`COc1ccc(-c2nc(N)sc2C2(O)C(=O)Nc3c(Br)cc(F)cc32)cc1OC` (stereo not drawn): the growth rescue activity is 0.392% (inactive).

The values above are taken from PubChem BioAssay AID624258 (Broad Institute, 2012).
